# Reference: patent US20070099947A1, “Methods and compositions for the treatment of brain reward system disorders by combination therapy” (Alkermes, Inc., priority 2005, published 2007)
# What was measured:
# [1] = tested on: self-administration of ethanol; test: Operant self-administration of ethanol (lever presses for 10% ethanol cocktail); type: in vivo, Male Wistar rats; details: for Percent Change from Non-Drug Baseline: Repeated Dosing: Day 1 / Percent Change from Non-Drug Baseline: Repeated Dosing: Day 5 / Percent Change from Non-Drug Baseline: Single Dosing: lever presses for ethanol, naltrexone ED75 SC; for Percent Change from Non-Drug Baseline: Repeated Dosing: Day 1 / Percent Change from Non-Drug Baseline: Repeated Dosing: Day 5: once a day for 5 days; for effect on number of lever presses for ethanol over the dose range: naltrexone 0-6 mg/kg SC, 30 min before session; for Lever Presses (Mean ± SEM): 30 min session; for decrease in number of lever presses for ethanol compared to non-drug treated (baseline): naltrexone ED75 0.05-0.075 mg/kg SC alone
# Description: Male Wistar rats (initial weight of 200±30 grams; Charles River Laboratories, MA) were individually housed with free access to food and water. The vivarium was maintained on a 12 hour light/dark cycle with a room temperature of 22±3° C.
# Animals were trained daily in an operant chamber to press a lever to receive access to an ethanol cocktail as a reinforcer using a saccharin fading procedure. […] The final ethanol cocktail contained 10% ethanol in 0.04% saccharine. Each session lasted 30 minutes, during which the rat could press the lever twice to gain access to 0.1 mL of the ethanol cocktail. The operant chamber (Coulboume Instruments, Allentown, Pa.) is a computer-controlled automated system which recorded the number of lever presses completed by a rat. At the end of the training period (6-8 weeks), rats which consistently drank a minimum intake of 0.6 g/kg/hour of EtOH (approximately 60 bar presses) were selected to participate in the drug studies. These trained rats were used repeatedly throughout these studies to control for intra-subject variability. Assessments of drug effects were made following a single dosing, with a minimum of a 2 day drug washout period between arms of studies.
# The ability of naltrexone to reduce ethanol drinking (i.e., decrease the number of lever presses) was assessed in this animal model of self administration of ethanol. […] The total number of lever presses was recorded over the 30 minute test session. […] In addition, oral activity was also assessed. […] The animals were tested in the operant chambers one hour later and the number of lever presses for ethanol was recorded for the 30 minute session.
# This dose allows one to determine if the co-administered drugs impaired or enhanced naltrexone's effect on ethanol drinking. The drugs were administered orally 30 minutes prior to a naltrexone injection (SC), and 60 minutes prior to the beginning of the ethanol drinking test session. The number of lever presses for the ethanol cocktail was recorded at the end of the 30 minute session.
# (§1) Repeated Dosing. The previous studies were conducted using a single dosing procedure. To determine if this drug interaction might be further enhanced with repeated daily dosing or conversely, the effect on decreasing alcohol self-administration is lost (due to tolerance) following multiple daily dosing, the study was repeated with a once-a-day for 5 days dosing procedure. […] Animals were tested on Day 1 and on Day 5.
# as §1, with “study was” for “studies were”, “repeated” for “repeated daily”
# [2] = tested on: morphine-induced analgesia; test: Hotplate test: inhibition of morphine-induced analgesia; type: in vivo, Male Wistar rats; details: 5 consecutive days SC dosing; first vs last day response latencies
# [3] = Pharmacokinetic profile of opioid antagonists after IV, PO and SC administration; details: rat; for AUC(0-inf) / bioavailability: male, Sprague Dawley, in vivo
# Description: Blood samples were collected for 6 hours post-dose. Concentrations of each parent drug were determined by LC/MS-MS. Pharmacokinetic parameters were determined by noncompartmental analysis.
structure (smiles),measurement,setting,value
Cc1c(C(=O)NN2CCCCC2)nn(-c2ccc(Cl)cc2Cl)c1-c1ccc(I)cc1 [AM-251],lever pressing for ethanol compared to non-drug treated conditions,[1]; AM-251 3.0 mg/kg alone,no effect
same,Percent Change from Non-Drug Baseline: Repeated Dosing: Day 1,[1]; AM-251 1 mg/kg PO,−2%
same,Percent Change from Non-Drug Baseline: Repeated Dosing: Day 5,[1]; AM-251 1 mg/kg PO,+19%
"NC[C@H](CC(=O)O)c1ccc(Cl)cc1 [Baclofen, R(+)-Baclofen]",lever pressing for ethanol compared to non-drug treated conditions,"[1]; baclofen 3.0 mg/kg alone, p<0.01",significantly decreased the self-administration of ethanol
same,Percent Change from Non-Drug Baseline: Repeated Dosing: Day 1,[1]; baclofen 0.3 mg/kg PO,−35%
same,Percent Change from Non-Drug Baseline: Repeated Dosing: Day 5,[1]; baclofen 0.3 mg/kg PO,−30%
O=C1CC[C@@]2(O)[C@H]3Cc4ccc(O)c5c4[C@@]2(CCN3CC2CC2)[C@H]1O5 [Naltrexone],development of tolerance in blocking morphine-induced analgesia,[2],no development of tolerance
same,effect on decreasing self-administration of ethanol,"[1]; 0.5 mg/kg SC, 30 minutes prior to testing",equivalent effects
same,effect on decreasing self-administration of ethanol (oral activity),"[1]; 10 mg/kg oral gavage, tested one hour later",only RDC-0313-01 was active
same,ED75 (dose of naltrexone that produced a 25% decrease in lever responses for ethanol),"[1]; SC, titrated for each individual animal",0.05 to 0.075 mg/kg
same,Percent Change from Non-Drug Baseline: Repeated Dosing: Day 1,[1]; AM-251 1 mg/kg PO,−24%
same,Percent Change from Non-Drug Baseline: Repeated Dosing: Day 5,[1]; AM-251 1 mg/kg PO,−19%
same,Percent Change from Non-Drug Baseline: Single Dosing,[1]; AM-251 PO,−33%
same,Percent Change from Non-Drug Baseline: Repeated Dosing: Day 1,[1]; baclofen 0.3 mg/kg PO,−43%
same,Percent Change from Non-Drug Baseline: Repeated Dosing: Day 5,[1]; baclofen 0.3 mg/kg PO,−57%
same,Percent Change from Non-Drug Baseline: Single Dosing,[1]; baclofen PO,−18%
same,decrease in lever presses versus baseline and vehicle control,"[1]; lowest dose of naltrexone tested, 0.05 mg/kg",no significant decrease
same,effect on number of lever presses for ethanol over the dose range,[1],Suppresses the Self-Administration of Ethanol in a Dose-Dependent Manner
same,effect on number of lever presses for ethanol over the dose range,[1]; listed as naltrexone,dose-dependent decrease in the number of lever presses
same,Approximate Absolute Ethanol Consumed,[1]; naltrexone 0.05 mg/kg SC,1.0 g/kg
same,Lever Presses (Mean ± SEM),[1]; naltrexone 0.05 mg/kg SC,132 ± 13.3
same,Approximate Absolute Ethanol Consumed,[1]; naltrexone 0.1 mg/kg SC,0.7 g/kg
same,Lever Presses (Mean ± SEM),[1]; naltrexone 0.1 mg/kg SC,88 ± 8.6
same,Approximate Absolute Ethanol Consumed,[1]; naltrexone 0.5 mg/kg SC,0.6 g/kg
same,Lever Presses (Mean ± SEM),[1]; naltrexone 0.5 mg/kg SC,83 ± 12.1
same,Approximate Absolute Ethanol Consumed,[1]; naltrexone 1.0 mg/kg SC,0.3 g/kg
same,Lever Presses (Mean ± SEM),[1]; naltrexone 1.0 mg/kg SC,43 ± 8.6
same,Approximate Absolute Ethanol Consumed,[1]; naltrexone 3.0 mg/kg SC,0.2 g/kg
same,Lever Presses (Mean ± SEM),[1]; naltrexone 3.0 mg/kg SC,24 ± 8.1
same,Approximate Absolute Ethanol Consumed,[1]; naltrexone 6.0 mg/kg SC,0.2 g/kg
same,Lever Presses (Mean ± SEM),[1]; naltrexone 6.0 mg/kg SC,21 ± 5.5
same,effect on decreasing ethanol drinking at the higher doses,[1]; naltrexone 3 and 6 mg/kg,appeared to plateau
same,decrease in number of lever presses for ethanol compared to non-drug treated (baseline),[1]; AM-251 acute dosing study,32.5%
same,decrease in number of lever presses for ethanol compared to non-drug treated (baseline),[1]; baclofen single dosing study,18%
same,AUC(0-inf),"[3]; po, 10 mg/kg",150 ng·h/mL
same,bioavailability,"[3]; po, 10 mg/kg",3%
same,AUC(0-inf),"[3]; sc, 0.1 mg/kg",14.4 ng·h/mL
same,bioavailability,"[3]; sc, 0.1 mg/kg",31%
same,absorption,[3]; PO or SC,rapidly absorbed
